In brackets after ≈: the same amount, converted by molar mass. Blank lines part the entries; values can stand above or below the compound they belong to.
Experiments:
COLO 205 = experiment: Cytotoxicity against human COLO205 cells after 72 hrs by MTT assay; assay type: functional, cell-based; details: COLO 205, 72 h
MDA-MB-435 = experiment: Cytotoxicity against human MDA-MB-435 cells after 72 hrs by MTT assay; assay type: functional, cell-based; details: MDA-MB-435, 72 h
HepG2 = experiment: Cytotoxicity against human HepG2 cells after 24 hrs by MTT assay; assay type: functional, cell-based; details: HepG2, 24 h
NCI-H460 = experiment: Cytotoxicity against human NCI-H460 cells after 24 hrs by MTT assay; assay type: functional, cell-based; details: NCI-H460, 24 h
MCF7 [1] = experiment: Cytotoxicity against human MCF7 cells after 24 hrs by MTT assay; assay type: functional, cell-based; details: MCF7, 24 h
MCF7 [2] = experiment: Cytotoxicity against human MCF7 cells at 50 nM in presence of doxorubicin relative to control; assay type: functional
[3] = Cytotoxicity against human PG100 cells assessed as cell viability at 955.2 ug/mL after 24 hrs by MTT assay relative to control; assay type: functional; details: read-out: Activity
[4] = Cytotoxicity against human QGY cells assessed as reduction in cell viability after 24 hrs by MTT assay; assay type: functional, cell-based
[5] = Cytotoxicity against human HO8910 cells assessed as reduction in cell viability after 24 hrs by MTT assay; assay type: functional, cell-based; details: HO-8910, 24 h
HeLa = experiment: Cytotoxicity against human HeLa cells assessed as reduction in cell viability after 24 hrs by MTT assay; assay type: functional, cell-based
[6] = Cytotoxicity against human 95-D cells assessed as reduction in cell viability after 24 hrs by MTT assay; assay type: functional, cell-based
A549 = experiment: Cytotoxicity against human A549 cells after 24 hrs by MTT assay; assay type: functional, cell-based; details: A549, 24 h
HT-29 [7] = experiment: Cytotoxicity against human HT-29 cells after 24 hrs by MTT assay; assay type: functional, cell-based; details: HT-29, 24 h
HEp-2 = experiment: Cytotoxicity against human Hep2 cells after 24 hrs by MTT assay; assay type: functional, cell-based; details: HEp-2, 24 h
MIA PaCa-2 = experiment: Cytotoxicity against human MIAPaCa2 cells after 24 hrs by MTT assay; assay type: functional, cell-based; details: MIA PaCa-2, 24 h
HL-60 = experiment: Antiproliferative activity against human HL60 cells assessed as reduction in cell viability after 3 days by XTT assay; assay type: functional, cell-based; details: HL-60, 72 h
PANC-1 [8] = experiment: Antitumour activity against human PANC1 cells xenografted in ip dosed nude BALB/c mouse assessed as tumor weight for 18 days; assay type: functional
MG-63 [9] = experiment: Cytotoxicity against human MG63 cells assessed as cell viability after 48 hrs in presence of allicin by MTT assay relative to control; assay type: functional
PANC-1 [10] = experiment: Cytotoxicity against human PANC1 cells assessed as cell viability after 24 hrs by MTT assay relative to control; assay type: functional
CFPAC-1 [11] = experiment: Antitumour activity against human CFPAC-1 cells xenografted in ip dosed nude BALB/c mouse assessed as tumor weight for 18 days; assay type: functional
U2OS = experiment: Cytotoxicity against human U2OS cells assessed as cell viability after 48 hrs in presence of allicin by MTT assay relative to control; assay type: functional
MG-63 [12] = experiment: Antitumour activity against human MG63 cells xenografted in nude BALB/c mouse assessed as tumour weight at […], ip for 5 days co-treated with allicin; assay type: functional
MGC-803 = experiment: Cytotoxicity against human MGC803 assessed as cell viability at 160 mg/l after 48 hrs by MTT assay relative to control; assay type: functional; details: MGC-803, 48 h, read-out: Activity
Lymphocyte [13] = experiment: Cytotoxicity against human lymphocytes; assay type: cell-based
HGC-27 = experiment: Cytotoxicity against human HGC27 assessed as cell viability at 160 mg/l after 48 hrs by MTT assay relative to control; assay type: functional; details: HGC-27, 48 h, read-out: Activity
CFPAC-1 [14] = experiment: Cytotoxicity against human CFPAC-1 cells assessed as cell viability after 24 hrs by MTT assay relative to control; assay type: functional
H22 = experiment: Antitumour activity against mouse H22 cells transplanted in mouse assessed as tumour growth inhibition at 300 mg/kg after 7 days relative to control; assay type: functional; details: H22, 168 h, read-out: TGI
Y79 = experiment: Induction of cell death in human Y79 cells by propidium iodide staining based flow cytometric analysis relative to control; assay type: functional
BGC-823 [15] = experiment: Cytotoxicity against human BGC823 assessed as cell viability at 160 mg/l after 48 hrs by MTT assay relative to control; assay type: functional; details: BGC-823, 48 h, read-out: Activity
[16] = Growth inhibition of human A375P cells at 150 uM after 72 hrs by MTT assay relative to control; assay type: functional; details: read-out: GI
HT-29 [17] = experiment: Cytotoxicity against human HT-29 cells; assay type: functional; details: read-out: ED50 (the source's name)
[18] = Growth inhibition of human A375M cells at 150 uM after 72 hrs by MTT assay relative to control; assay type: functional; details: read-out: GI
P388 = experiment: Cytotoxicity against mouse P388 cells; assay type: functional; details: read-out: ED50 (the source's name)
[19] = Cytotoxicity against rat pancreatic tumour cells assessed as reduction in cell viability after 24 hrs by MTT assay; assay type: functional, cell-based
BE(2)-C = experiment: Induction of apoptosis in human BE(2)-C cells assessed as apoptotic cells at 300 uM after 72 hrs by Annexin V-FITC/propidium iodide staining based flow cytometric analysis relative to control; assay type: functional
KB = experiment: Cytotoxicity against human KB cells; assay type: functional; details: read-out: ED50 (the source's name)
SK-N-DZ = experiment: Induction of apoptosis in human SK-N-DZ cells assessed as apoptotic cells at 300 uM after 72 hrs by Annexin V-FITC/propidium iodide staining based flow cytometric analysis relative to control; assay type: functional
Lymphocyte [20] = experiment: Induction of apoptosis in human Lymphocyte cells assessed as apoptotic cells at 2 ug/ml after 24 hrs by Annexin V-FITC/propidium iodide staining based fluorescence microscopic method relative to control; assay type: cell-based
MCF7 [21] = experiment: Cytotoxicity against human MCF7 cells; assay type: functional; details: read-out: ED50 (the source's name)
[22] = Induction of apoptosis in human SH-EP1 cells assessed as apoptotic cells at 300 uM after 72 hrs by Annexin V-FITC/propidium iodide staining based flow cytometric analysis relative to control; assay type: functional
SK-N-AS = experiment: Induction of apoptosis in human SK-N-AS cells assessed as apoptotic cells at 300 uM after 72 hrs by Annexin V-FITC/propidium iodide staining based flow cytometric analysis relative to control; assay type: functional
HCT-8 = experiment: Cytotoxicity against human HCT8 cells; assay type: functional, cell-based
BGC-823 [23] = experiment: Cytotoxicity against human BGC823 cells; assay type: functional, cell-based

Compound: C=C1C(=O)O[C@H]2[C@H]1[C@@H](O)C[C@]1(C)O[C@@]13C(=O)C=C(C)[C@H]23
IC50 (COLO 205): 7 to 10 µM | IC50 (MDA-MB-435): 7 to 10 µM

Compound: CC1=C[C@@H]2[C@@H]([C@@H](C)C(=O)O)CC[C@@](C)(O)[C@@H]2C[C@H]1O
IC50 (HepG2): 26.8 to 48.7 µM | IC50 (NCI-H460): 26.8 to 48.7 µM | IC50 (MCF7 [1]): 26.8 to 48.7 µM

Compound: CO[C@H]1O[C@@H]2O[C@@]3(C)CC[C@H]4[C@H](C)CC[C@@H]([C@H]1C)[C@@]24OO3
Activity (MCF7 [2]): 50% | viability at 955.2 µg/mL [3]: 5.55%

Compound: C=CC(=C)CC/C=C(/CCC=C(C)C)COC(C)=O
IC50 [4]: 17.9 to 73.3 µM | IC50 [5]: 17.9 to 73.3 µM | IC50 (HeLa): 17.9 to 73.3 µM | IC50 [6]: 17.9 to 73.3 µM

IC50 (HL-60): 1.1 to 40.7 µg/mL (≈ 6.54 to 242 µM)
Compound: CC#CC#CC(=O)c1ccccc1
IC50 (A549): 0.6 to 6.1 µM | IC50 (HT-29 [7]): 0.6 to 6.1 µM | IC50 (HEp-2): 0.6 to 6.1 µM | IC50 (MIA PaCa-2): 0.6 to 6.1 µM

Compound: C[C@H]1[C@H](OC(=O)CCC(=O)O)O[C@@H]2O[C@@]3(C)CC[C@H]4[C@H](C)CC[C@@H]1[C@@]24OO3 [ARTESUNATE]
Activity (PANC-1 [8]): <0.4 g | Activity (MG-63 [9]): <25% | Activity (PANC-1 [10]): <10% | Activity (CFPAC-1 [11]): <0.4 g | Activity (U2OS): <25% | Activity (MG-63 [12]): <0.5 g | viability at 160 µg/mL (MGC-803): < 20% | IC50 (Lymphocyte [13]): 80 µM | viability at 160 µg/mL (HGC-27): < 20% | Activity (CFPAC-1 [14]): <10% | inhibition in vivo at 300 mg/kg (H22): 49.1% | Activity (Y79): 80% | viability at 160 µg/mL (BGC-823 [15]): < 20%

Compound: C[C@@H]1CC[C@H]2[C@@H](C)C(=O)O[C@@H]3O[C@@]4(C)CC[C@@H]1[C@]32OO4 [ARTEMISININ]
inhibition of growth at 150 µM [16]: 68% | EC50 (HT-29 [17]): 1.25 to 9.62 µg/mL (≈ 4.43 to 34.1 µM) | inhibition of growth at 150 µM [18]: 60% | EC50 (P388): 1.25 to 9.62 µg/mL (≈ 4.43 to 34.1 µM) | IC50 [19]: 45 µM | Activity (BE(2)-C): 42% | EC50 (KB): 1.25 to 9.62 µg/mL (≈ 4.43 to 34.1 µM) | Activity (SK-N-DZ): 40% | Activity (Lymphocyte [20]): 70% | EC50 (MCF7 [21]): 1.25 to 9.62 µg/mL (≈ 4.43 to 34.1 µM) | Activity [22]: 23% | Activity (SK-N-AS): 22%

Compound: C=C1C(=O)O[C@H]2[C@H]1[C@@H](OC(=O)C(C)CC)CC(=C)[C@]1(O)CC=C(C)[C@H]21 (stereo not given in full)
IC50 (COLO 205): 7 to 10 µM | IC50 (MDA-MB-435): 7 to 10 µM

Compound: C=C(C(=O)OC)[C@@H]1CC[C@@]2(C)C(=O)C=C[C@@](C)(O)[C@@H]2[C@H]1O
IC50 (HCT-8): 9.13 µM | IC50 (BGC-823 [23]): 6.25 µM

— ChEMBL document CHEMBL4342436, “Artemisia: a promising plant for the treatment of cancer” (Bioorg Med Chem, 2020)
